The results in this text go back to patent US20240366579A1, “PHARMACEUTICAL COMPOSITION COMPRISING GPR40 AGONIST AND SGLT-2 INHIBITOR” (ILDONG PHARMACEUTICAL CO., LTD., priority 2021, published 2024).

The subject of the assay is Sprague-Dawley (SD) rats. Briefly: oral glucose tolerance test (OGTT) in SD rats, reduction rate in blood glucose AUC relative to vehicle. In kind it is in vivo, rat. The settings on record: male SD rats. The procedure: In this experiment, the compound represented by Formula 1 was prepared by the method described in Example 5 of Korean Patent Laid-Open Publication No. 10-2018-0069718 and dapagliflozin (HY-10450, MedChemExpress Co., Ltd.) was used. As a control group, a vehicle (0.5% carboxymethyl cellulose (CMC)) was used.
After at least 1 week of acclimatization of 8 to 10 week-old male Sprague-Dawley (SD) rats, an oral glucose tolerance test (OGTT) was performed using healthy rats.
After 16 hours of fasting, the rats were randomly divided into groups each having 5 rats similar in body weight and blood glucose level, followed by administration of the vehicle (0.5% carboxymethyl cellulose (CMC)), 0.3 mg/kg of the compound represented by Formula 1 alone, 0.1 mg/kg of dapagliflozin alone, or a combination of 0.3 mg/kg of the compound represented by Formula 1 and 0.1 mg/kg of dapagliflozin. One hour after administration of each of the drugs, glucose (2 g/kg) was intraperitoneally injected at a dose of 10 ml/kg. Blood glucose level was measured 60 minutes before glucose injection and 0, 15, 30, 60, and 120 minutes after glucose injection through puncture of the caudal vein using a blood glucose meter (Gluco DR. Almedicus. Co. Ltd.). Results were expressed by a reduction rate (%) in area under the blood glucose curve (AUC) relative to administration of the vehicle.
Results of measuring AUC from 0 to 60 min and from 0 to 120 min after glucose injection according to the above method are shown in Table 1 and FIG. 1.
An experiment was conducted in the same manner as in Example 1 except that 0.3 mg/kg of empagliflozin (HY-15409, MedChemExpress Co., Ltd.) was used instead of 0.1 mg/kg of dapagliflozin.

The mark [1] stands for this setting: Example 1, 0.3 mg/kg alone, 1 h before glucose 2 g/kg.
Setting [2] is: Example 2, Formula 1 0.3 mg/kg alone.
Where [3] appears, read: Example 1, 0.1 mg/kg alone, 1 h before glucose 2 g/kg.
[4] abbreviates: Example 2, empagliflozin 0.3 mg/kg alone.

As for `CC#C[C@@H](CC(=O)O)c1ccc(O[C@@H]2CCc3c(-c4ccc(O[C@@H]5CCOC5)nc4)ccc(F)c32)cc1` [Compound of Formula 1, (S)-3-(4-(((R)-7-fluoro-4-(6-(((R)-tetrahydrofuran-3-yl)oxy)pyridin-3-yl)-2,3-dihydro-1H-inden-1-yl)oxy)phenyl)hex-4-ynoic acid], under setting [1], the “reduction rate (%) in area under the blood glucose curve AUC (0-60 min) relative to vehicle” value stood at 17.9% and the “reduction rate (%) in area under the blood glucose curve AUC (0-120 min) relative to vehicle” value is reported as 18.1%. Further, under setting [2], the “reduction rate (%) in area under the blood glucose curve AUC (0-60 min) relative to vehicle” value came out at 21.3% and the “reduction rate (%) in area under the blood glucose curve AUC (0-120 min) relative to vehicle” value is reported as 21.6%.
As for `CCOc1ccc(Cc2cc([C@@H]3O[C@H](CO)[C@@H](O)[C@H](O)[C@H]3O)ccc2Cl)cc1` [Dapagliflozin, dapagliflozin], under setting [3], the “reduction rate (%) in area under the blood glucose curve AUC (0-60 min) relative to vehicle” value is 9.8% and the “reduction rate (%) in area under the blood glucose curve AUC (0-120 min) relative to vehicle” value is 6.7%.
In the case of `OC[C@H]1O[C@@H](c2ccc(Cl)c(Cc3ccc(O[C@H]4CCOC4)cc3)c2)[C@H](O)[C@@H](O)[C@@H]1O` [Empagliflozin, empagliflozin], under setting [4], the “reduction rate (%) in area under the blood glucose curve AUC (0-60 min) relative to vehicle” value was 5.5% and the “reduction rate (%) in area under the blood glucose curve AUC (0-120 min) relative to vehicle” value is given as 4.0%.
